According to patent US9586994B2, “CD44V6-derived peptides for treating breast cancer” (KARLSRUHER INSTITUT FÜR TECHNOLOGIE, priority 2012, dated 2017):
No end group written: not given here. MeO‑PEG‑COOH = methoxy-PEG carboxylic acid, 750 or 2000 Da

Key:
L3.6pl tumors = assay: In vivo and ex vivo imaging (Pearl Imager) of mice with L3.6pl tumors; parameters: species or system mouse; settings: 24 h after injection
Protocol: In vivo imaging of the mice with the L3.6pl tumors was performed using the Pearl™ Imager (LI-COR Biosciences, Bad Homburg, Germany) The system uses two lasers (685 and 785 nm) for excitation and a charge-coupled device detector for signal detection. The laser excitation enables a deep tissue penetration. With the near-infrared detection a high sensitivity due to the reduced tissue auto-fluorescence is achieved. In order to standardize the images we made use of the Pearl Cam Software. The animals were fed with chlorophyll-reduced food to reduce the fluorescence background one week before imaging (Regime 210, safe-diets, Augy, France). Prior to imaging the mice were anesthetized with 2.0% isoflurane. Animals were placed on the heated plate of the imager and continuous delivery of isoflurane was achieved through a nose cone in the imaging drawer. Images were captured at white light, 700 and 800 nm Animals were imaged prior to i.v. peptide injection and 24 h after injection with either DY681-labeled human v6 peptide or DY681-labeled rat v6 peptide as control Immediately after each imaging session animals were killed, tumor, liver and spleen isolated and scanned ex vivo at white light, 700 and 800 nm.
Then, the specificity of binding of the human CD44v6 peptide to the tumor in vivo was examined using the small animal imaging system Pearl Impulse. […]

L3.6pl cells [1] = assay: Staining of fixed L3.6pl cells with DY681-labeled peptides (confocal microscopy); assay type: binding, human; settings: DY681-labeled peptide
Protocol: (§1) ASs6 or L3.6pl cells were seeded at 5,000 cells/well of a Lab-TekR Chamber Slide™ (Nunc, Napierville, Ill., USA). On the following day the cells were washed with cold PBS and fixed with 4% Formalin for 30 min at RT. Unspecific binding was blocked with 1% BSA in PBS for 1 hour at RT. The cells were incubated for 1 hour with the DY681-labeled peptides. After three washing steps with PBS the cover slips were mounted with Fluorescence Mounting Medium (Dako, Glostrup, Denmark) and the immunofluorescence was measured by a laser scanning confocal microscope Leica TCS2 SP2 (Exton, Pa., USA) and processed using Leica confocal software. A 20× objective was used for imaging.

CD44v6 [2] = assay: HGF-induced activation of Met and ERK in L3.6pl cells (Western blot); assay type: cell-based, human
Protocol: (§2) Serum-starved cells (24 hours) were induced with the growth factor HGF (10 ng/mL) at 37° C. for 5 minutes. Where indicated, the cells were treated with peptides (100 ng/ml) prior to induction at 37° C. for 10 minutes (100 ng/mL CD44v6 peptide or control peptide). Following the induction with HGF, cells were washed with ice-cold phosphate-buffered saline (PBS). To detect activated Met and ERK, cells were lysed in sodium dodecyl sulfate (SDS)—sample buffer containing 100 mM dithiothreitol (DTT), boiled and subjected to western blot analysis using antibodies against phospho-Met and ERK. The loading controls were performed on the same blot after stripping (62.5 mM Tris, pH 6.8, 2% SDS, 0.8% DTT) by probing with the Met respectively Erk antibody. Blots were stained using the enhanced chemiluminescence system (Thermo Fisher Scientific, Schwerte, Germany). Bands in western blot analysis were quantified with the program Image J (National Institutes of Health).
To expand the studies to human pancreatic tumors, the highly metastatic human pancreatic carcinoma cells L3.6pl (Bruns, et al. Neoplasia (1999), 1(1):50-62) were investigated. These cells originate from the […] cells that have been passaged several times in the liver and the pancreas, a step that rendered them more and more metastatic. It was confirmed that Met is dependent on CD44v6 for its activation and signaling in these cells (FIG. 19A). The L3.6pl cells were treated with HGF in the presence or absence of a human v6 peptide of SEQ ID NO: 2 or SEQ ID NO:6 and Met activation and downstream signaling to ERK was measured. Phosphorylation of both Met and ERK was inhibited by the human v6 peptide. Treatment with a corresponding rat v6 peptide (ctrl peptide, SEQ ID NO: 10 or 11) had no influence on receptor activation and signal transduction (FIG. 19A).
The contribution of CD44v6 to Met signaling in the human epithelial pancreatic cancer cells L3.6pl (derived from Colo 357), the cervix carcinoma cells HeLa and the colon cancer cells HT29 were analysed using the CD44v6 peptide (v6 14mer; v6 5mer tested as well, data not shown).

BSp73ASs6 cells [3] = assay: Rat syngeneic model, subcutaneous BSp73ASs6 tumors, treatment from one week (metastasis formation); assay type: in vivo; settings: rats, s.c. BSp73ASs6
Protocol: In the case of the rat syngeneic model, 1×10^6 pancreatic cells (BSp73AS and its transfectants) were subcutaneously injected into the right posterior flank of the animals. Tumors developed for four weeks. During this time period animals injected with BSp73ASs6 cells expressing Met-shRNA or control-shRNA received doxycycline in the drinking water. At the end of the experiment, primary tumors were isolated. Lungs and axillary lymph nodes were analyzed. The tissues were incubated for 24 h in a zinc-fixative (0.5 g calcium acetate, 5.0 g zinc acetate, 5.0 g zinc chloride, in 1 L 0.1 M Tris pH 7.4) and embedded in paraffin for further analysis. In case of peptide or antibody treatment tumors developed for one week before the first treatment. Where indicated, animals received 200 μg of peptide or antibody per injection three times per week for four weeks. Tumor growth was monitored weekly using a caliper Animals were killed at day 28 or 30 after start of the treatment.
For histomorphological analysis paraffin-embedded sections of lungs were stained with hematoxylin and eosin and periodic acid-Schiff (H&E or PAS). Serial sections of the whole tissue blocks were examined by analyzing slices every 20 μm; in each slice, the presence and the extension of the metastatic deposit was assessed, according to the procedure routinely used by pathologists to evaluate the presence of micrometastases.
Rat peptides had the sequences KEKWFENEWQGKNP (SEQ ID NO: 10) and NEWQG (SEQ ID NO: 11). BSp73ASs6 cells were subcutaneously injected into syngeneic rats and rat CD44v6 peptides of SEQ ID NO: 10 or SEQ ID NO: 11 (or mouse control peptides) or the CD44v6 antibody (or IgGs as a control) were injected intra-tumoral or intravenously three times a week. […] This is compatible with the fact that also BSp73AS cells or BSp73ASv1-10Δv6 cells can induce the formation of primary tumors similarly to the v6 transfectants.

HT29 colon cancer cells = assay: Scatter assay, HGF-induced HT29 colon cancer cells; assay type: cell-based, human; settings: HGF 10 ng/ml, pre-incubated with peptide
Protocol: A scatter assay was performed additionally. HT29 colon cancer cells were grown in medium containing 10% FCS. One day after seeding, the cells were starved. On the third day, the cells were induced with HGF (10 ng/ml) and pre-incubated with either no peptide, ctrl-peptides (SEQ ID NO: 15), non-pegylated v6-peptides (SEQ ID NO: 11) or the pegylated peptides, namely PEG-rat control peptide and PEG-rat CD44v6 peptide.

L3.6pl cells [4] = assay: Human orthotopic pancreatic cancer model, L3.6pl cells in nude mice, treatment from day 7; assay type: in vivo, mouse; settings: L3.6pl orthotopic model; 5mer instead of 14mer
Protocol: In the case of the human orthotopic model, L3.6pl pancreatic carcinoma cells (passage 24-26) were suspended in Hank's balanced salt solution (Invitrogen, Karlsruhe, Germany) after trypsinization. The cells were injected orthotopically in the pancreas of male nude mice as described (Bruns C J et al. (1999) Neoplasia 1(1):50-62). Two groups of 15 mice each were injected i.p. 7 days later with either the human v6 peptide respectively rat control peptide (20 μg). For all experiments described and depicted herein either the rat 14mer control peptide or the human 14mer peptide were used. All experiments were then repeated with the rat 5mer control peptide or the human 5mer peptide (N-R-W-H-E, SEQ ID NO: 2). […] The injection was repeated three times per week for 21 days. Two days after the last treatment the animals were killed.
7 μm thick paraffin sections were deparaffinized and rehydrated. For P-Met staining antigen unmasking was achieved by boiling the slides in 1 mM EDTA pH 8.0 followed by incubation for 15 minutes at a sub-boiling temperature, for CD31 staining the sections were treated with Proteinase K (8 μg/ml) for […] at 37° C. For immunofluorescence staining of P-Met, unspecific binding was blocked with 5% goat serum (DAKO, Glostrup, Denmark) (diluted in 1×PBS/0.3% Triton X-100) for 60 minutes. In the case of immunohistochemistry, endogenous peroxidases were at first blocked with 3% H2O2 in PBS followed by incubation with biotin blocking system (Dako, Glostrup, Denmark) and then unspecific binding was inhibited by incubation with 5% FCS in PBS was used for blocking. The sections were incubated with the P-Met antibody (D26, dilution 1:50 in 1×PBS/1% BSA/0.3% Triton X-100), Met antibody (C-28, dilution 1:50), GFP antibody (sc-101525, dilution 1:50) or CD31 antibody (5 μg/ml) over night or VFF18 (5 μg/ml) o/n at 4° C. After washing in PBS the sections were incubated with Alexa Fluor R 546 goat anti-rabbit (in case of immunofluorescence P-Met and Met staining, dilution 1:500) or a biotinylated secondary antibody (for immunohistochemical stainings rabbit anti-rat antibody for VFF18 and CD31, goat anti-rabbit for P-Met, cleaved Caspase-3 and cleaved Caspase-8 and rabbit anti-mouse for GFP, dilution 1:500) for 45 minutes. For DAB staining the sections were treated with a streptavidin-peroxidase conjugate (Dako, Glostrup, Denmark) and developed with DAB (3,3′-diaminobenzidine) substrate system (3,3′-diaminobenzidine; Biozol, Eching, Germany) For immunofluorescence DAPI was used for nuclear staining.
To test the effect of the peptide on tumor growth and metastasis formation the L3.6pl cells were orthotopically injected into the pancreas of immunosuppressed mice (NCI-nu). […] The primary tumor expresses a high amount of CD44v6 (FIG. 19B). […] Indeed, human HGF in a concentration of 3375 pg/ml was detected in the supernatant (see Material and Methods) after 5 days of culture (data not shown).

BSp73ASs6 cells [5] = assay: Staining of fixed BSp73ASs6 cells with DY681-labeled peptides (confocal microscopy); assay type: binding, rat; settings: 1 hour with DY681-labeled peptide
Protocol: as §1

BSp73ASs6 tumors = settings: rat
From the text: To avoid autofluorescence of fur, rats were shaved around the tumor prior to imaging. Subsequently, animals were anesthetized using 2% isoflurane and gently fixed on the devices' heated plate for the entire time of data acquisition. To reduce fluorescence background, rats were fed with chlorophyll-reduced food (Provimi Kliba AG, Kaiseraugst, Switzerland) for one week prior NIRF imaging. All in vivo analyses were preceded by native scans of animals without any injection of the fluorescent probe. For in vivo analysis, rats were injected with 200 μg DY681-labeled rat v6 11 mer peptide or the human v6 11 mer peptide via the tail vein. Controls were injected with the equal amount of DY681-labeled mouse v6 11mer peptide. […] All peptides were labeled with the fluorescent dye DY681. Data were acquired at the indicated time after injection of the peptides. […]
DY681 fluorescence was measured using excitation at 670 nm in combination with a 700 nm long-pass emission filter. […] Data sets were analyzed with OptiView (ART).
For in vivo experiments, BSp73ASs6 cells were injected subcutaneously into syngeneic rats. […] The accumulation of the fluorescence was measured in the tumor region by Optix MX2 at the indicated time points. […] Then, in vivo binding kinetics of the Dy681-labeled v6 peptides to the subcutaneous tumors were determined. […]

CD44v6 [6] = assay: HGF-induced Met/Erk activation in BSp73ASs6 cells with DY681-labeled peptides; assay type: cell-based, rat; settings: FIG. 18A right side, activation of Erk determined
Protocol: as §2
In order to test the specificity of the binding of CD44v6 peptides to the tumor site and to the metastases and to estimate the binding kinetics in vivo, near infrared fluorescence (NIRF) imaging with the Optix MX2 was. For this purpose two CD44v6 peptides were labeled with the fluorophore DY681: a rat specific one, rv6 pep Dy681 and a mouse specific one, mv6 pep Dy681, as a control.

CD44v6 [7] = assay: Activation assay with pegylated peptides: HGF-induced Met and ERK activation in BSp73ASs6 cells; assay type: cell-based, rat
Protocol: The PEG-control peptide and PEG-rat CD44v6 peptide were compared for their ability to block HGF induced activation of the receptor tyrosine kinase Met and ERK.
Rat pancreatic cancer cells BSp73ASs6 (also designated Ass6) were incubated for 10 min at 37° C. with either ctrl-peptides (SEQ ID NO: 15), non-pegylated v6-peptides (SEQ ID NO: 11) and increasing concentrations of the pegylated peptides, namely PEG-rat control peptide and PEG-rat CD44v6 peptide, before induction with HGF (10 ng/ml; 5 min at 37° C.).
Activation of ERK and Met was determined by standard SDS and Western Blotting techniques using a phospho-Met and phospho-Erk specific antibody (phospho-Met clone D16 cell signaling, phospho-Erk p42/44 cell signaling)

[8] = peptide before induction with 10 ng/ml HGF
[9] = peptide 10 min 37° C., HGF 10 ng/ml 5 min

## WFGNRWHEGYR (also: DY681 fluorescent dye label) [labeled human v6 peptide, human 11mer labeled with the fluorescent dye DY681]
L3.6pl tumors; mice with L3.6pl tumors
  Ex vivo fluorescence of isolated organs (tumor, liver, spleen): binding not only to primary tumors but also to areas of the liver
L3.6pl tumors; mice with orthotopic L3.6pl tumors, 20 μg i.v.
  Accumulation of fluorescence in the tumor in vivo: accumulated specifically in the tumor
L3.6pl cells [1]
  Binding to L3.6pl cells in cell culture: bound to these cells in cell culture
CD44v6 [2]; FIG. 20A right side, activation of Erk determined
  Met activation (HGF-induced) with DY681-labeled peptides: inhibited Met activation

## NEWQG [SEQ ID NO: 11, rat CD44v6 5mer peptide]
BSp73ASs6 cells [3]; 200 μg per injection i.t. or i.v., three times a week, four weeks, start after one week
  Metastasis (axillary lymph nodes and lungs): completely inhibited metastasis
BSp73ASs6 cells [3]; 200 μg three times a week
  Metastasis and micro-metastasis in lung sections (PAS and H&E histology): no metastasis nor micro-metastasis could be detected
BSp73ASs6 cells [3]; treatment for 28 days
  Outgrowth of primary tumors: not influenced
HT29 colon cancer cells
  Dissociation and migration of cells away from cell cluster (scatter): lead to dissociation and migration of cells away from these cell cluster
L3.6pl cells [4]
  Outcome of all experiments repeated with 5mer peptides, compared with 14mer: same results as for the 14mer peptides
CD44v6 [2]; [8]
  HGF-induced phosphorylation/activation of ERK: no influence
  HGF-induced phosphorylation/activation of Met: no influence

## WFENEWQGKNP (also: DY681 fluorescent dye label) [rv6 pep Dy681, rat 11mer labeled with the fluorescent dye DY681]
BSp73ASs6 cells [5]
  Binding to BSp73ASs6 cells in tissue culture: bound to BSp73ASs6 cells
BSp73ASs6 tumors
  Ex vivo fluorescence in excised tumors and lungs: Fluorescence intensities could only be detected in tumors and in specific areas of the lungs
CD44v6 [6]
  Met activation (HGF-induced) with DY681-labeled peptides: inhibited Met activation
L3.6pl cells [1]
  Binding to L3.6pl cells in cell culture: not

## PEG-NEWQG ({MeO‑PEG‑COOH}-NEWQG; also: PEG 750 or 2000 Da) [PEG-rat CD44v6 peptide, rat 5mer NEWQG coupled to MeO-PEG-COOH (750 Da and 2000 Da)]
HT29 colon cancer cells
  Dissociation and migration of cells away from cell cluster (scatter): lead to dissociation and migration of cells away from these cell cluster
CD44v6 [7]; HGF 10 ng/ml
  Efficiency of inhibition of ERK, pegylated vs. non-pegylated peptides: even more efficient
CD44v6 [7]; [9]
  HGF dependent activation of ERK: efficient in inhibiting
  HGF dependent activation of Met: efficient in inhibiting
